According to ChEMBL document CHEMBL3885861, “Open TG-GATES”:

Species: Rattus norvegicus
Assay: Open TG-GATES - Regimen: Single
Assay type: toxicity, organism-based, Sprague-Dawley
Parameters: regimen Single, gender Male, age 6 weeks
Conditions: in vivo, po, 0 mg/kg, route gavage, dose level Control; for APTT / Bas / Eos / Fbg / Hb / Ht / Lym / MCH / MCHC / MCV / Mono / Neu / PT / Plat / RBC / Ret: tissue Blood; for KIDNEY_L / KIDNEY_R / KIDNEY_TOTAL: tissue Kidney; for LIVER: tissue Liver; for ALP / ALT / AST / BUN / CRE / Ca / Cl / DBIL / GLC / IP / K / LDH / Na / PL / RALB / TBIL / TC / TG / TP / gamma-GTP: tissue Plasma

COc1ccc2[nH]c([S+]([O-])Cc3ncc(C)c(OC)c3C)nc2c1 (stereo not drawn) [OMEPRAZOLE]
TERMINAL_BW (3 h): 218.5 g
APTT (3 h): 20.5 s
Bas (3 h): 0%
Eos (3 h): 1%
Fbg (3 h): 206.4 mg/dL
Hb (3 h): 13 g/dL
Ht (3 h): 38.5%
Lym (3 h): 77.8%
MCH (3 h): 21.4 pg
MCHC (3 h): 33.9%
MCV (3 h): 63.1 fL
Mono (3 h): 2.4%
Neu (3 h): 18.6%
PT (3 h): 12.5 s
Plat (3 h): 122.7 x10_4/uL
RBC (3 h): 610.2 x10_4/ul
Ret (3 h): 7.2%
KIDNEY_L (3 h): 0.9 g
KIDNEY_R (3 h): 0.9 g
KIDNEY_TOTAL (3 h): 1.9 g
LIVER (3 h): 9.9 g
ALP (3 h): 855.8 IU/L
ALT (3 h): 33.2 IU/L
AST (3 h): 68.4 IU/L
BUN (3 h): 12.6 mg/dL
CRE (3 h): 0.4 mg/dL
Ca (3 h): 10.8 mg/dL
Cl (3 h): 100.6 meq/L
DBIL (3 h): 0.064 mg/dL
GLC (3 h): 191.8 mg/dL
IP (3 h): 8.3 mg/dL
K (3 h): 3.8 meq/L
LDH (3 h): 171.2 IU/L
Na (3 h): 140.4 meq/L
PL (3 h): 130.8 mg/dL
RALB (3 h): 3.1 g/dL
TBIL (3 h): 0.1 mg/dL
TC (3 h): 69.4 mg/dL
TG (3 h): 59.4 mg/dL
TP (3 h): 5.3 g/dL
gamma-GTP (3 h): 1 IU/L
TERMINAL_BW (6 h): 218.1 g
APTT (6 h): 19.3 s
Bas (6 h): 0%
Eos (6 h): 0.8%
Fbg (6 h): 220.4 mg/dL
Hb (6 h): 13.6 g/dL
Ht (6 h): 39.7%
Lym (6 h): 72.4%
MCH (6 h): 21.4 pg
MCHC (6 h): 34.1%
MCV (6 h): 62.7 fL
Mono (6 h): 3.8%
Neu (6 h): 22.2%
PT (6 h): 12.6 s
Plat (6 h): 123.4 x10_4/uL
RBC (6 h): 634.2 x10_4/ul
Ret (6 h): 7.1%
KIDNEY_L (6 h): 1 g
KIDNEY_R (6 h): 1 g
KIDNEY_TOTAL (6 h): 1.9 g
LIVER (6 h): 9.9 g
ALP (6 h): 923.8 IU/L
ALT (6 h): 32.6 IU/L
AST (6 h): 66 IU/L
BUN (6 h): 11 mg/dL
CRE (6 h): 0.3 mg/dL
Ca (6 h): 10.7 mg/dL
Cl (6 h): 100.8 meq/L
DBIL (6 h): 0.07 mg/dL
GLC (6 h): 201 mg/dL
IP (6 h): 8.8 mg/dL
K (6 h): 3.8 meq/L
LDH (6 h): 181.6 IU/L
Na (6 h): 140 meq/L
PL (6 h): 141.4 mg/dL
RALB (6 h): 3.3 g/dL
TBIL (6 h): 0.1 mg/dL
TC (6 h): 73.4 mg/dL
TG (6 h): 81.2 mg/dL
TP (6 h): 5.4 g/dL
gamma-GTP (6 h): 1.8 IU/L
TERMINAL_BW (9 h): 218.2 g
APTT (9 h): 20.9 s
Bas (9 h): 0%
Eos (9 h): 1%
Fbg (9 h): 212.8 mg/dL
Hb (9 h): 13.3 g/dL
Ht (9 h): 38.6%
Lym (9 h): 78%
MCH (9 h): 21.5 pg
MCHC (9 h): 34.3%
MCV (9 h): 62.6 fL
Mono (9 h): 3%
Neu (9 h): 17.4%
PT (9 h): 13.1 s
Plat (9 h): 119.3 x10_4/uL
RBC (9 h): 615.6 x10_4/ul
Ret (9 h): 7.4%
KIDNEY_L (9 h): 0.9 g
KIDNEY_R (9 h): 1 g
KIDNEY_TOTAL (9 h): 1.9 g
LIVER (9 h): 9.1 g
ALP (9 h): 764.2 IU/L
ALT (9 h): 28 IU/L
AST (9 h): 59.2 IU/L
BUN (9 h): 11.4 mg/dL
CRE (9 h): 0.3 mg/dL
Ca (9 h): 10.7 mg/dL
Cl (9 h): 101 meq/L
DBIL (9 h): 0.06 mg/dL
GLC (9 h): 188.4 mg/dL
IP (9 h): 9.4 mg/dL
K (9 h): 3.9 meq/L
LDH (9 h): 175.4 IU/L
Na (9 h): 140.4 meq/L
PL (9 h): 122.2 mg/dL
RALB (9 h): 3.3 g/dL
TBIL (9 h): 0.1 mg/dL
TC (9 h): 66.4 mg/dL
TG (9 h): 54.6 mg/dL
TP (9 h): 5.5 g/dL
gamma-GTP (9 h): 1.4 IU/L
TERMINAL_BW (24 h): 234.9 g
APTT (24 h): 20.7 s
Bas (24 h): 0%
Eos (24 h): 1%
Fbg (24 h): 229.6 mg/dL
Hb (24 h): 13.2 g/dL
Ht (24 h): 38.7%
Lym (24 h): 78.6%
MCH (24 h): 21.7 pg
MCHC (24 h): 34.1%
MCV (24 h): 63.6 fL
Mono (24 h): 2.6%
Neu (24 h): 17.2%
PT (24 h): 12.1 s
Plat (24 h): 118.9 x10_4/uL
RBC (24 h): 608 x10_4/ul
Ret (24 h): 6.6%
KIDNEY_L (24 h): 1 g
KIDNEY_R (24 h): 1 g
KIDNEY_TOTAL (24 h): 2 g
LIVER (24 h): 11.8 g
ALP (24 h): 979.4 IU/L
ALT (24 h): 35.4 IU/L
AST (24 h): 62.2 IU/L
BUN (24 h): 17.4 mg/dL
CRE (24 h): 0.4 mg/dL
Ca (24 h): 11.1 mg/dL
Cl (24 h): 101.2 meq/L
DBIL (24 h): 0.094 mg/dL
GLC (24 h): 216 mg/dL
IP (24 h): 7.7 mg/dL
K (24 h): 4.2 meq/L
LDH (24 h): 192 IU/L
Na (24 h): 140.6 meq/L
PL (24 h): 151.6 mg/dL
RALB (24 h): 3.4 g/dL
TBIL (24 h): 0.1 mg/dL
TC (24 h): 79.6 mg/dL
TG (24 h): 109 mg/dL
TP (24 h): 5.5 g/dL
